{
  "source": "patent US8283365B2",
  "about": "“Indole modulators of the alpha 7 nicotinic acetylcholine receptor” (Proximagen Limited, priority 2008, dated 2012)",
  "target": "T1, human α7 nAChR (Homo sapiens, UniProt P36544)",
  "T1 construct": "expressed in transfected cells; host or cells: GH4C1 (rat pituitary) cell line, stably transfected",
  "T1 sequence (P36544 23-502)": "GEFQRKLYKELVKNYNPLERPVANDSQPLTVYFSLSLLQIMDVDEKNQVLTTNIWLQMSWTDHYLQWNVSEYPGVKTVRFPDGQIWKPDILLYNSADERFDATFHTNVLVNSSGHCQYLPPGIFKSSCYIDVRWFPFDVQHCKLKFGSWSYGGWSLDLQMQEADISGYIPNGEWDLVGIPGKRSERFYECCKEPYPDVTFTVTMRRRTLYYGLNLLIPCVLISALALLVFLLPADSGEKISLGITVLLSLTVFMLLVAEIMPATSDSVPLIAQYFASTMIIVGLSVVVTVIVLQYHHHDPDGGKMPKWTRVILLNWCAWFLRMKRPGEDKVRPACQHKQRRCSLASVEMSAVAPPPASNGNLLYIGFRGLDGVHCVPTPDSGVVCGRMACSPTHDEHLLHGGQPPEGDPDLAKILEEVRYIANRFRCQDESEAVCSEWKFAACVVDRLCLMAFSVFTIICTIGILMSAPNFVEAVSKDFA",
  "test": "FLIPR cell-based calcium flux assay for PAM activity at α7 nAChR (nicotine-evoked response)",
  "settings": "GH4C1 cell line stably transfected with human α7 nAChR",
  "protocol": "The PAM activity of the compounds of the invention at the α7 nAChR may be determined using the following cell-based calcium flux assay which uses a Fluorimetric Image Plate Reader (FLIPR) (see Schroeder et al.; J. Biomolecular Screening, 1(2), p 75-80, 1996).\nGH4C1 cell line stably transfected with human α7 nAChR was suspended in a 384 well plate and incubated at 30° C. for 48 h in a 5% carbon dioxide atmosphere. The growth media was removed and the cells washed three times with a solution of Hanks' balanced salt solution (HBSS), 20 mM HEPES and 2.5 mM probenecid leaving 20 μl washing solution in each well. A loading solution (20 μl) containing HBSS, probenecid, 1-4 μM Fluo4 AM (a calcium indicator dye) and pluronic acid was added and the plate incubated for 45 min at 37° C. under an atmosphere free from carbon dioxide. The cells were washed three times leaving 30 μl in each well. The plate containing the cells and calcium indicator dye were then transferred to the FLIPR. The assay was initiated by collecting baseline datapoints at 10 second intervals followed by addition of the test compound in buffer solution (0.33% DMSO) and diluted to a final concentration of 10 μM and serial dilution of the wells, 1:2 or 1:3, gave a low concentration of <1 nM. Following a further 5-10 mins 10 μl of 50 μM nicotine was added and data collected for 2-3 mins. […]",
  "data": [
    {"compound": "O=C(NCc1ccc2[nH]c(C(F)(F)F)cc2c1)c1ccc(C(F)(F)F)nc1", "note": "[Compound 1, N-[(2-Trifluoromethyl-1H-indol-5-yl)methyl]-6-(trifluoromethyl)-3-pyridinecarboxamide]", "values": [
      {"measurement": "EC50", "setting": "potentiation of nicotine-evoked calcium flux", "result": "< 1000", "unit": "nM"},
      {"measurement": "maximum potentiation of the response area relative to nicotine control", "setting": "relative to nicotine control", "result": "approximately 1200%"}
    ]}
  ]
}
